C=C(C)[C@@H]1CC[C@]2(CO)CC[C@]3(C)[C@H](CC[C@@H]4[C@@]5(C)CC[C@H](O)C(C)(C)[C@@H]5CC[C@]43C)[C@@H]12
solubility (mole fraction)
Conditions	in DMF	in NMP	in acetonitrile	in n-dodecane	in n-hexadecane	in n-nonanol	in n-octanol	in n-pentanol	in sec-butanol	in water
293.2 K	0.00208	0.00549	0.000269	1.5e-05	4.6e-05	0.00217	0.0016	0.000894	0.000701	4e-06
298.2 K	0.00244	0.00569	0.000473	1.6e-05	5.3e-05	0.00234	0.00162	0.00096	0.000728	5e-06
303.2 K	0.00294	0.0059	0.000697	1.9e-05	5.7e-05	0.00254	0.00179	0.00108	0.000813	6e-06
308.2 K	0.00334	0.00615	0.00104	2.3e-05	6.5e-05	0.00292	0.00186	0.0012	0.000845	9e-06
313.2 K	0.00368	0.00635	0.00137	2.5e-05	7.6e-05	0.00324	0.00209	0.00132	0.000941	1.4e-05
318.2 K	0.00426	0.00653	0.00193	3e-05	8.3e-05	0.00371	0.00229	0.00149	0.00108	1.8e-05
323.2 K	0.00461	0.00676	0.00244	3.5e-05	9.8e-05	0.00431	0.00269	0.00175	0.0012	2.5e-05
328.2 K	0.00518	0.00697	0.00341	4.5e-05	0.000117	0.0051	0.00341	0.00198	0.00148	3.3e-05

C[C@@H]1CC[C@@]2(OC1)O[C@H]1C[C@H]3[C@@H]4CC=C5C[C@@H](O)CC[C@]5(C)[C@H]4CC[C@]3(C)[C@H]1[C@@H]2C
in n-pentanol
Conditions	solubility (mole fraction)
293.2 K	0.00462
298.2 K	0.0051
303.2 K	0.00621
308.2 K	0.0075
313.2 K	0.00866
318.2 K	0.0102
323.2 K	0.0122
328.2 K	0.0148

— BigSolDB 2.1
